Measurements taken from US9896441B2 (Lycera Corporation, priority 2014, dated 2018).
Blank lines part the entries; values can stand above or below the compound they belong to.

Molecular target: T1, RORγ-LBD (Homo sapiens, UniProt P51449)
T1 construct: made in house; host or cells: SF9 cells (baculovirus); used as diluted lysate
T1 sequence (P51449 269-508 limits assumed): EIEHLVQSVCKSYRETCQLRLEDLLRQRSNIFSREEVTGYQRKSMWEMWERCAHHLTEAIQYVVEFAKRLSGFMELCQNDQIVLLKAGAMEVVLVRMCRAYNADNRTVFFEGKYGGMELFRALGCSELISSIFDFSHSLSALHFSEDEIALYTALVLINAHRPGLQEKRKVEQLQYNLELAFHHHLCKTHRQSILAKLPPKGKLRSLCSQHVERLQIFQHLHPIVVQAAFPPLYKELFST
Assay: RORγ-Ligand Binding Domain (LBD) TR-FRET Assay;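 on TR-FRET Assay Max Response: 665/615 nm signal ratio set to 100 without ursolic acid or test compound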
Type: biochemical
Details: for TR-FRET Assay Max Response: maximum response
Method: Assay procedures and results are described below.
HIS-tagged RORγ-LBD protein was expressed in SF9 cells using a baculovirus expression system. The lysate was diluted in assay buffer (50 mM Tris pH 7.0, 50 mM KCl, 1 mM EDTA, 0.1 mM DTT, 0.01% BSA) to obtain RORγ-LBD final concentration of ˜3 nM in a 384-well assay plate (need to titrate for each batch of protein).
A stock of biotinylated-LXXLL peptide from coactivator SRC1 (Biotin-[…]) was prepared in assay buffer and added to each well (200 nM final concentration). […] RORγ antagonist ursolic acid was also included at a final concentration of 2 μM. Compounds were diluted in DMSO and further diluted in assay buffer with a final DMSO concentration at 1%.

[1] = with 2 μM ursolic acid (RORγ antagonist), highest test concentration 10 μM

EC50 (RORγ-LBD TR-FRET assay): < 500 nM
Structure (SMILES): CC(=O)N[C@@H]1Cc2ccc(/C=C(\C)c3c(F)cccc3Cl)cc2N(S(=O)(=O)c2cccc(C(F)(F)F)c2)[C@@H]1C [Example 148, N-((2R,3R)-7-((E)-2-(2-Chloro-6-fluorophenyl)prop-1-en-1-yl)-2-methyl-1-((3-(trifluoromethyl)phenyl)sulfonyl)-1,2,3,4-tetrahydroquinolin-3-yl)acetamide]
TR-FRET Assay Max Response (RORγ-LBD TR-FRET assay): ** (a value in the range of greater than 90 to 150)

EC50 [1]: < 500 nM
Structure (SMILES): O=C(O)C[C@H]1CN(S(=O)(=O)c2cccc(C(F)(F)F)c2)c2cc(NCc3c(F)cccc3Cl)ccc2O1

EC50 (RORγ-LBD TR-FRET assay): < 500 nM
Structure (SMILES): Cc1noc(C)c1NC(=O)N[C@@H]1Cc2ccc(/C=C/c3c(F)cccc3C(F)(F)F)cc2N(S(=O)(=O)c2cccc(C(F)(F)F)c2)[C@@H]1C [Example 116L, 1-(3,5-dimethylisoxazol-4-yl)-3-((2R,3R)-7-((E)-2-fluoro-6-(trifluoromethyl)styryl)-2-methyl-1-((3-(trifluoro-methyl)phenyl)sulfonyl)-1,2,3,4-tetrahydroquinolin-3-yl)urea]
TR-FRET Assay Max Response (RORγ-LBD TR-FRET assay): *** (a value in the range of greater than 150 to 200)

EC50 (RORγ-LBD TR-FRET assay): < 500 nM
Structure (SMILES): COc1cc(S(=O)(=O)C2CC(CC(C)(C)C(=O)O)Oc3ccc(/C=C(\C)c4c(F)cccc4Cl)cc32)ccc1F (stereo not shown) [Example 186K, (E)-3-(6-(2-(2-chloro-6-fluorophenyl)prop-1-en-1-yl)-4-((4-fluoro-3-methoxyphenyl)-sulfonyl)chroman-2-yl)-2,2-dimethylpropanoic acid]
TR-FRET Assay Max Response (RORγ-LBD TR-FRET assay): *** (a value in the range of greater than 150 to 200)

EC50 (RORγ-LBD TR-FRET): < 500 nM
Structure (SMILES): CCn1cc(S(=O)(=O)N2C[C@H](CNC(C)=O)Oc3ccc(NCc4c(F)cccc4Cl)cc32)c(OCCO)n1 [Example 28E]

EC50 (RORγ-LBD TR-FRET): 500 to 5000 nM
Structure (SMILES): CCOc1ncc(C(F)(F)F)cc1S(=O)(=O)N1C[C@H](CCC(=O)OC)Oc2ccc(C=C3CCCCC3)cc21 [Example 95A, methyl (S)-3-(6-(cyclohexylidenemethyl)-4-((2-ethoxy-5-(trifluoromethyl)pyridin-3-yl)sulofnyl)-3,4-dihydro-2H-benzo[b][1,4]oxazin-2-yl)propanoate]

EC50 [1]: < 500 nM
Structure (SMILES): O=S(=O)(c1cccc(C(F)(F)F)c1)N1CC(CO)Cc2ccc(OCc3c(F)cccc3Cl)cc21 (stereo not shown)

EC50 (RORγ-LBD TR-FRET): > 10000 nM
Structure (SMILES): Cc1noc(C)c1/C=C/c1ccc2c(c1)N(S(=O)(=O)c1cccc(C(F)(F)F)c1)C[C@H](CCC(=O)O)O2 [Example 89BR, (S,E)-3-(6-(2-(3,5-dimethylisoxazol-4-yl)vinyl)-4-((3-(trifluoromethyl)phenyl)sulfonyl)-3,4-dihydro-2H-benzo[b][1,4]-oxazin-2-yl)propanoic acid]

EC50 (RORγ-LBD TR-FRET): > 10000 nM
Structure (SMILES): Cn1cc(/C=C/c2ccc3c(c2)N(S(=O)(=O)c2cccc(C(F)(F)F)c2)C[C@H](CCC(=O)O)O3)c(C(F)(F)F)n1 [Example 89BY, (S,E)-3-(6-(2-(1-methyl-3-(trifluoromethyl)-1H-pyrazol-4-yl)vinyl)-4-((3-(trifluoromethyl)-phenyl)sulfonyl)-3,4-dihydro-2H-benzo[b][1,4]oxazin-2-yl)propanoic acid]

EC50 [1]: > 10000 nM
Structure (SMILES): Cc1ccc(COc2ccc3c(c2)N(S(=O)(=O)c2cccc(C(F)(F)F)c2)CC(C(=O)O)C3)cc1F (stereo not shown)

EC50 (RORγ-LBD TR-FRET): > 10000 nM
Structure (SMILES): O=C(O)CC[C@H]1CN(S(=O)(=O)c2cccc(C(F)(F)F)c2)c2cc(/C=C/c3c[nH]nc3C(F)(F)F)ccc2O1 [Example 89BT, (S,E)-3-(6-(2-(3-(trifluoromethyl)-1H-pyrazol-4-yl)vinyl)-4-((3-(trifluoromethyl)phenyl)-sulfonyl)-3,4-dihydro-2H-benzo[b][1,4]oxazin-2-yl)propanoic acid]

EC50 (RORγ-LBD TR-FRET): < 500 nM
Structure (SMILES): COc1cc(S(=O)(=O)N2CCCc3ccc(OCc4c(F)cccc4Cl)cc32)ccc1F [Example 24, 7-((2-Chloro-6-fluorobenzyl)oxy)-1-((4-fluoro-3-methoxyphenyl)sulfonyl)-1,2,3,4-tetrahydroquinoline]

EC50 (RORγ-LBD TR-FRET): < 500 nM
Structure (SMILES): O=S(=O)(c1cccc(C(F)(F)F)c1)N1CCCc2cc(Cl)c(OCc3c(F)cccc3Cl)cc21 [Example 28A]
